Reference: patent US11485744B2, “High penetration prodrug compositions of antimicrobials and antimicrobial-related compounds” (priority 2009, dated 2022)
≈ marks a conversion by molar mass, not a printed value.

Legend:
[1] = tested on: E. faecalis; test: MIC against E. faecalis; assay type: cell-based; conditions: Table 6c; for MIC: Enterococcus faecalis
[2] = tested on: S. aureus; test: MIC against S. aureus; conditions: for MIC: Staphylococcus aureus, read-out: MIC, S. aureus; for MIC, S. aureus: Table 6c
Procedure: (§2) Minimum inhibitory concentrations (MICs) of the antimicrobials and their pro-drugs were assessed according to Jennifer M. Andrews, Journal of Antimicrobial Chemotherapy 48, suppl.

[3] = tested on: E. coli; test: MIC against E. coli; conditions: for MIC: Escherichia coli, read-out: MIC, E. coli; for MIC, E. coli: Table 6c
Procedure: as §2

[4] = tested on: methicillin-resistant Staphylococcus aureus (MRSA); test: MIC against MRSA; assay type: cell-based; conditions: Staphylococcus aureus, MRSA; Table 6a; read-out: MIC
[5] = In vitro penetration across isolated human skin in modified Franz cells; conditions: pH 7.4
Procedure: Penetration rates of HPPs and their parent drugs through human skin were measured in vitro by modified Franz cells. A Franz cell had two chambers, the top sample chamber and the bottom receiving chamber. The human skin tissue (360-400 μm thick) that separated the top and the receiving chambers was isolated from the anterior or posterior thigh areas.
A test compound (2 mL, 10% in 0.2 M phosphate buffer, pH 7.4) was added to the sample chamber of a Franz cell. The receiving chamber contained 10 ml of 0.2 M phosphate buffer which was stirred at 600 rpm. The amount of the tested compound penetrating the skin was determined by high-performance liquid chromatography (HPLC) method.

[6] = tested on: Aspergillus tereus; test: Antifungal MIC in vitro; assay type: cell-based
[7] = tested on: E. coli; test: Bacteriological cure of cow mastitis, topical treatment; assay type: in vivo; conditions: cows, day 22, topical 500 mg twice per day
Procedure: (§1) 90 lactating dairy cows were recruited. Bacteriological cure was considered to have been achieved if the samples taken from the affected quarter on day 17 and day 22 were free of the bacterial species isolated in the pretreatment sample. Clinical cure was defined as the disappearance of clinical signs of disease which were observed on day 1 before treatment, in other words by the return to normal feed intake, rectal temperature<39.0° C., good general condition, absence of udder edema, normal milk appearance, and normal milk yield.

[8] = tested on: Coagulase-negative staphylococci; test: as above; assay type: in vivo; conditions: cows, day 22, topical 500 mg twice per day
Procedure: as §1

[9] = tested on: Staphylococcus aureus; test: as above; assay type: in vivo; conditions: cows, day 22, topical 500 mg twice per day
Procedure: as §1

[10] = tested on: Enterobacteriaceae; test: as above; assay type: in vivo; conditions: cows, day 22, topical 500 mg twice per day
Procedure: as §1

[11] = tested on: Streptococcus uberis; test: as above; assay type: in vivo; conditions: cows, day 22, topical 500 mg twice per day
Procedure: as §1

[12] = tested on: Aspergillus nidulans; test: Antifungal MIC in vitro; assay type: cell-based
[13] = tested on: Fusarium aquaductum; test: Antifungal MIC in vitro; assay type: cell-based
[14] = tested on: Microsporum canis; test: Antifungal MIC in vitro; assay type: cell-based
[15] = tested on: Aspergillus giganteus; test: Antifungal MIC in vitro; assay type: cell-based
[16] = tested on: Aspergillus niger; test: Antifungal MIC in vitro; assay type: cell-based
[17] = Clinical cure of cow mastitis, topical treatment; assay type: in vivo, lactating dairy cows; conditions: cows, 500 mg in 10 ml pH 7.4 phosphate buffer sprayed on skin of udder twice per day
Procedure: as §1

[18] = Conversion of HPPs to parent drugs in human plasma (half life); assay type: in vitro ADME
Procedure: HPPs of antimicrobials or antimicrobial-related compounds converted to the parent antimicrobials or antimicrobial-related compounds quickly in good yield in human plasma.
A HPP of antimicrobial or antimicrobial-related compound (10 mg) was dissolved in 0.1 ml of 0.2M pH 7.4 phosphate buffer. 1 ml of human plasma, preheated to 37° C., was added into the mixture. The mixture was kept in a water bath at 37° C., and at every 2 min intervals 0.2 ml of samples were withdrawn and added to 0.4 ml of methanol to precipitate the plasma protein.

[19] = tested on: Candida albicans; test: Antifungal MIC in vitro; assay type: cell-based
[20] = tested on: Fusarium oxisporum; test: Antifungal MIC in vitro; assay type: cell-based
[21] = tested on: Penicillium carylophilium; test: Antifungal MIC in vitro; assay type: cell-based
[22] = tested on: Trichophyton mentagrophytes; test: Antifungal MIC in vitro; assay type: cell-based

## O=C(O)c1cn(C2CC2)c2cc(N3CCNCC3)c(F)cc2c1=O [Ciprofloxacin, 1-cyclopropyl-6-fluoro-4-oxo-7-piperazin-1-yl-quinoline-3-carboxylic acid]
[1]
  MIC: 2 µg/mL (≈ 6.04 µM)
[2]
  MIC: 128 µg/mL (≈ 386 µM)
[3]
  MIC: 10 µg/mL (≈ 30.2 µM)

## COc1cccc(OC)c1C(=O)N[C@@H]1C(=O)N2[C@@H]1SC(C)(C)[C@@H]2C(=O)O [Methicillin, reference compound]
[4]
  MIC: 2160 µg/mL (≈ 5670 µM)
[5]; human, 10 %
  In vitro Penetration Rate (apparent flux), Parent compounds: <0.001 mg/cm^2/h

## Cc1noc(NS(=O)(=O)c2ccc(N)cc2)c1C [Sulfisoxazole]
[1]
  MIC: 55 µg/mL (≈ 206 µM)
[2]
  MIC: 64 µg/mL (≈ 239 µM)
[3]
  MIC: 16 µg/mL (≈ 59.9 µM)

## CCN(CC)CCOC(=O)C1=CCSC2C(NC(=O)C(=NOC)c3csc(NC(C)=O)n3)C(=O)N12.Cl (stereo not shown) [ceftizoxime-DEE, 7-[[(2-acetylamino-4-thiazolyl)(methoxyimino)acetyl]amino]-8-oxo-5-thia-1-azabicyclo[4.2.0]oct-2-ene-2-carboxylic acid 2-diethylaminoethyl ester hydrochloride]
[6]; Aspergillus, read-out: Minimum inhibitory concentration, Aspergillus tereus
  MIC: 4 µg/mL
[4]
  MIC: 0.5 µg/mL
[7]
  Bacteriological cure rate, E. coli: 87.5%
  Bacteriological cure, No. cured, E. coli: 7
[8]
  Bacteriological cure rate, Coagulase-negative staphylococci: 87.5%
  Bacteriological cure, No. cured, Coagulase-negative staphylococci: 7
[9]
  Bacteriological cure rate, Staphylococcus aureus: 83%
  Bacteriological cure, No. cured, Staphylococcus aureus: 5
[10]
  Bacteriological cure rate, Enterobacteriaceae: 83.3%
  Bacteriological cure, No. cured, Enterobacteriaceae: 5
[11]
  Bacteriological cure rate, Streptococcus uberis: 82%
  Bacteriological cure, No. cured, Streptococcus uberis: 9
[12]; Aspergillus nidulans, read-out: Minimum inhibitory concentration, Aspergillus nidulans
  MIC: 4 µg/mL
[13]; Fusarium, read-out: Minimum inhibitory concentration, Fusarium aquaductum
  MIC: 3 µg/mL
[5]; human, 10 %
  In vitro Penetration Rate (apparent flux), HPPs: 0.62 ± 0.05 mg/cm^2/h
[14]; Microsporum canis, read-out: Minimum inhibitory concentration, Microsporum canis
  MIC: 2 µg/mL
[15]; Aspergillus giganteus, read-out: Minimum inhibitory concentration, Aspergillus giganteus
  MIC: 5 µg/mL
[16]; Aspergillus niger, read-out: Minimum inhibitory concentration, Aspergillus niger
  MIC: 4 µg/mL
[17]
  Clinical Cure Rate, Day 3: 53%
  Clinical Cure Rate, Day 8: 93%
  Clinical Cure Rate, Day 15: 99%
  Clinical Cure Rate, Day 22: 100%
[18]; human, plasma, pH 7.4
  half-life at 9.1 mg/mL: 11 min
[19]; Candida albicans, read-out: Minimum inhibitory concentration, Candida albicans
  MIC: 8 µg/mL
[20]; Fusarium, read-out: Minimum inhibitory concentration, Fusarium oxisporum
  MIC: 5 µg/mL
[21]; Penicillium, read-out: Minimum inhibitory concentration, Penicillium carylophilium
  MIC: 3 µg/mL
[22]; Trichophyton mentagrophytes, read-out: Minimum inhibitory concentration, Trichophyton mentagrophytes
  MIC: 9 µg/mL

## CCCCOC(=O)c1cn(C2CC2)c2cc(N3CCNCC3)c(F)cc2c1=O.Cl [ciprofloxacin-BE, 1-cyclopropyl-6-fluoro-4-oxo-7-piperazin-1-yl-quinoline-3-carboxylic acid butyl ester•HCl salt]
[1]
  MIC, E. faecalis: 0.05 µg/mL
[5]
  In vitro Penetration Rate (apparent flux), HPPs of sulfonamides, sulfones, quinolones: 0.29 ± 0.02 mg/cm^2/h
[2]
  MIC, S. aureus: 5 µg/mL
[3]
  MIC, E. coli: 0.2 µg/mL

## CCN(CC)CCOC(=O)C1N2C(=O)C(NC(=O)c3c(OC)cccc3OC)C2SC1(C)C.Cl (stereo not shown) [methicillin-DEE, 6-(2,6-dimethoxybenzamido)penicillinic acid 2-diethylaminoethyl ester hydrochloride]
[6]
  Minimum inhibitory concentration, Aspergillus tereus: 12 µg/mL
[7]
  Bacteriological cure rate, E. coli: 80%
  Bacteriological cure, No. cured, E. coli: 8
[8]
  Bacteriological cure rate, Coagulase-negative staphylococci: 85.7%
  Bacteriological cure, No. cured, Coagulase-negative staphylococci: 6
[9]
  Bacteriological cure rate, Staphylococcus aureus: 80%
  Bacteriological cure, No. cured, Staphylococcus aureus: 4
[10]
  Bacteriological cure rate, Enterobacteriaceae: 75%
  Bacteriological cure, No. cured, Enterobacteriaceae: 6
[11]
  Bacteriological cure rate, Streptococcus uberis: 70%
  Bacteriological cure, No. cured, Streptococcus uberis: 7
[12]
  Minimum inhibitory concentration, Aspergillus nidulans: 8 µg/mL
[13]
  Minimum inhibitory concentration, Fusarium aquaductum: 10 µg/mL
[14]
  Minimum inhibitory concentration, Microsporum canis: 8 µg/mL
[15]
  Minimum inhibitory concentration, Aspergillus giganteus: 9 µg/mL
[16]
  Minimum inhibitory concentration, Aspergillus niger: 9 µg/mL
[17]
  Clinical Cure Rate, Day 3: 43%
  Clinical Cure Rate, Day 8: 90%
  Clinical Cure Rate, Day 15: 97%
  Clinical Cure Rate, Day 22: 100%
[18]; human plasma, 37° C.
  Half life of HPPs in plasma: 10 ± 1 min
[19]
  Minimum inhibitory concentration, Candida albicans: 16 µg/mL
[20]
  Minimum inhibitory concentration, Fusarium oxisporum: 8 µg/mL
[21]
  Minimum inhibitory concentration, Penicillium carylophilium: 9 µg/mL
[22]
  Minimum inhibitory concentration, Trichophyton mentagrophytes: 22 µg/mL

## CCn1cc(C(=O)O)c(=O)c2ccc(C)nc21 [nalidixic acid, 1-ethyl-7-methyl-4-oxo-[1,8]naphthyridine-3-carboxylic acid]
[1]
  MIC: 64 µg/mL (≈ 276 µM)
[2]
  MIC: 158 µg/mL (≈ 680 µM)
[3]
  MIC: 6 µg/mL (≈ 25.8 µM)

## CCN(CC)CCOC(=O)c1cn(CC)c2nc(C)ccc2c1=O.Cl [nalidixic acid-DEE, 1-ethyl-7-methyl-4-oxo-[1,8]naphthyridine-3-carboxylic acid N,N-diethylaminoethyl ester•HCl salt]
[1]
  MIC, E. faecalis: 1 µg/mL
[5]
  In vitro Penetration Rate (apparent flux), HPPs of sulfonamides, sulfones, quinolones: 0.25 ± 0.04 mg/cm^2/h
[2]
  MIC, S. aureus: 5 µg/mL
[3]
  MIC, E. coli: 0.2 µg/mL

## CCN(CC)CCOC(=O)C1N2C(=O)C(NC(=O)COc3ccccc3)C2SC1(C)C.Cl (stereo not shown) [penicillin V-DEE, 6-phenoxyacetacetamidopenicillanic acid 2-diethylaminoethyl ester hydrochloride]
[6]
  Minimum inhibitory concentration, Aspergillus tereus: 2 µg/mL
[7]
  Bacteriological cure rate, E. coli: 87.5%
  Bacteriological cure, No. cured, E. coli: 7
[8]
  Bacteriological cure rate, Coagulase-negative staphylococci: 78%
  Bacteriological cure, No. cured, Coagulase-negative staphylococci: 7
[9]
  Bacteriological cure rate, Staphylococcus aureus: 67%
  Bacteriological cure, No. cured, Staphylococcus aureus: 4
[10]
  Bacteriological cure rate, Enterobacteriaceae: 85.7%
  Bacteriological cure, No. cured, Enterobacteriaceae: 6
[11]
  Bacteriological cure rate, Streptococcus uberis: 80%
  Bacteriological cure, No. cured, Streptococcus uberis: 8
[12]
  Minimum inhibitory concentration, Aspergillus nidulans: 3 µg/mL
[13]
  Minimum inhibitory concentration, Fusarium aquaductum: 2 µg/mL
[5]
  In vitro Penetration Rate (apparent flux), HPPs: 0.72 ± 0.06 mg/cm^2/h
[14]
  Minimum inhibitory concentration, Microsporum canis: 2 µg/mL
[15]
  Minimum inhibitory concentration, Aspergillus giganteus: 3 µg/mL
[16]
  Minimum inhibitory concentration, Aspergillus niger: 3 µg/mL
[17]
  Clinical Cure Rate, Day 3: 50%
  Clinical Cure Rate, Day 8: 90%
  Clinical Cure Rate, Day 15: 93%
  Clinical Cure Rate, Day 22: 97%
[18]; human, plasma
  Half life of HPPs in plasma: 8 ± 1 min
[19]
  Minimum inhibitory concentration, Candida albicans: 7 µg/mL
[20]
  Minimum inhibitory concentration, Fusarium oxisporum: 3 µg/mL
[21]
  Minimum inhibitory concentration, Penicillium carylophilium: 2 µg/mL
[22]
  Minimum inhibitory concentration, Trichophyton mentagrophytes: 12 µg/mL
